Publication PMC7915519, “Zinc(II) Complexes of Amino Acids as New Active Ingredients for Anti-Acne Dermatological Preparations” (International Journal of Molecular Sciences, 2021)

Experiments:
[1] = test system: human skin fibroblasts (1BR.3.N cell line); assay: Cytotoxicity, Presto Blue cell viability assay on human skin fibroblasts; format: cell-based; details: 1BR.3.N human skin fibroblasts, 24 h incubation, Hill Equation, read-out: IC50 Values (Mean ± SD) Fibroblasts
Experimental: The cytotoxicity test was conducted on a 1BR.3.N cell line (human skin fibroblasts, ECACC, co. 90020508) and human epidermal keratinocytes, neonatal (Millipore, co. SCCE020) purchased from Sigma-Aldrich (Merck, Darmstadt, Germany). […] The cells were maintained at 37 °C and 5% CO2 in a humidified incubator. Next, the medium was changed into a starvation medium for the 1BR.3.N cell line (EpiGROTM human epidermal keratinocyte complete media kit for keratinocytes) with a variable final concentration of five analyzed complexes (ZnGlu (1), ZnGly (2), ZnHis (3), ZnPro (4), ZnTrp (6)) and two controls, ZnPCA and ZnCl2.

L929 fibroblast cultures = test system: L929 fibroblast cultures; parameters: method as in PMID 28246541; details: murine model; read-out: IC50 against L929 fibroblast cultures; cited from earlier work
[2] = test system: human epidermal keratinocytes, neonatal; assay: Cytotoxicity, Presto Blue cell viability assay on human epidermal keratinocytes; format: cell-based; details: 24 h incubation, Hill Equation, read-out: IC50 Values (Mean ± SD) Keratinocytes
Experimental: The cytotoxicity test was conducted on a 1BR.3.N cell line (human skin fibroblasts, ECACC, co. 90020508) and human epidermal keratinocytes, neonatal (Millipore, co. SCCE020) purchased from Sigma-Aldrich (Merck, Darmstadt, Germany). The same procedure was conducted for keratinocytes in EpiGROTM human epidermal keratinocyte complete media with 6 mM L-glutamine, 0.405 EpiFactor P, 1.0 μM epinephrine, 0.5 ng/mL rh TGF-α, 100 ng/mL hydrocortisone hemisuccinate, 5 μg/mL rh insulin and apo-transferrin. The cells were maintained at 37 °C and 5% CO2 in a humidified incubator. Next, the medium was changed into a starvation medium for the 1BR.3.N cell line (EpiGROTM human epidermal keratinocyte complete media kit for keratinocytes) with a variable final concentration of five analyzed complexes (ZnGlu (1), ZnGly (2), ZnHis (3), ZnPro (4), ZnTrp (6)) and two controls, ZnPCA and ZnCl2.

HaCaT keratinocytes = details: concentration equal to 100 μM; cited from earlier work
[3] = test system: Cutibacterium acnes ATCC 6919; assay: Antimicrobial activity by microdilution method (CLSI M11), anaerobic conditions; format: cell-based; details: C. acnes ATCC 6919, 48 h at 37 °C, tested up to 500 mg/L
Experimental: The antimicrobial potential of zinc complexes against the anaerobic strain Cutibacterium acnes ATCC 6919 was tested by the microdilution method in Brucella broth supplemented with hemin, vitamin K1 and laked horse blood according to the CLSI document M11 (9th Edition) for antimicrobial susceptibility testing of anaerobic bacteria. Antimicrobial activity testing assays were conducted in 96-well cell culture plates in anaerobic conditions. The antimicrobial properties of zinc complexes were tested up to 500 mg/L. […] The bacterial suspension and dilutions of the tested compounds were combined in equal volumes to achieve the expected concentrations of zinc amino acid complexes. Samples as well as adequate abiotic and biotic controls were incubated for 48 h at 37 °C after being placed in 96-well cell culture plates in anaerobic jars, in which anaerobic conditions were formed using Anoxomat Mark II CTS (Mart Microbiology […], the Netherlands). The minimum inhibitory concentration (MIC), expressed in mg/L, was determined as the lowest concentration of zinc amino acid complexes at which no growth of C. acnes was observed. […] The Brucella agar plates were incubated for 48 h at 37 °C after placing the plates in anaerobic jars, in which anaerobic conditions were created.

[4] = test system: human lung fibroblast (MRC-5) cell line; parameters: method as in PMID 30594780; details: concentrations up to 100 µM; cited from earlier work

Compound	IC50 [1] [µM]	IC50 (L929 fibroblast cultures) [µM]	IC50 [2] [µM]	toxicity to HaCaT keratinocytes (HaCaT keratinocytes)	MIC Value [3] [µg/mL]	toxic effects on MRC-5 cell line [4]
[Cl-].[Cl-].[Zn+2] [ZnCl2]	163 ± 4.1	0.928	127	non-toxic		
NCC(=O)[O-].NCC(=O)[O-].[Zn+2] [ZnGly (2)]	120 ± 4.61		138 ± 8.11		100	
O=C1CCC(C(=O)[O-])N1.O=C1CCC(C(=O)[O-])N1.[Zn+2] (centres unmarked) [ZnPCA, zinc 2-pirrolidone 5-carboxylate]	172 ± 9.69		102 ± 2.07		175	
copper(II) complex with 5-hydroxytryptophan						no toxic effects
